{
  "source": "patent US20220370397A1",
  "about": "“METHODS AND COMPOSITIONS FOR TREATMENT OF CANCER” (Enzychem Lifesciences Corporation, priority 2019, published 2022)",
  "key": {"[1]": {"tested_on": "MB49 murine bladder cancer cells", "experiment": "MB49 bladder cancer syngeneic model, PLAG with or without PD-L1 antibody", "type": "in vivo, C57BL/6 mice", "text": "The syngeneic model was used (n=6) to investigate the enhanced anti-tumor effect of PD-L1 antibody with the addition of PLAG. MB49 murine bladder cancer cells were implanted into the C57BL/6 mice subcutaneously and bred for 5 weeks. After a week from tumor implantation, PLAG at different dosages (50/100 mpk) were daily administered orally for another 4 weeks with or without 5 mpk PD-L1 antibody (10F.9G2). PD-L1 antibody was delivered via IP injection once a week. (FIG. 7, Table 1)"}, "[2]": {"tested_on": "tumor in Xenograft mice", "experiment": "PLAG alone in Xenograft mice (tumor mass, neutrophil infiltration, chemokines, cell cycle factors by IHC)", "type": "in vivo, mouse", "text": "Compared to positive control: *P<0.05, ***P<0.001 (each experiment n=5).\nCompared to positive control: *P<0.05, **P<0.01 (each experiment n=5).\nN.S., not significant. Compared to positive control; #P<0.05, ##P<0.01, ###P<0.001 (each experiment n=5). N.S.′, not significant.\nCompared to positive control: *P<0.05, **P<0.01 (each experiment n=5). N.S., not significant."}, "[3]": {"tested_on": "PAR2", "experiment": "PAR2 degradation (western blot, immunoprecipitation, ubiquitination assay)", "type": "cell-based", "conditions": "PLAG and neutrophil co-treated cancer cells / cancer tissues"}, "[4]": {"tested_on": "neutrophil-activated MDA-MB-231 breast cancer cells", "experiment": "Cell growth and cell cycle activity in neutrophil-activated cancer cells", "type": "cell-based", "text": "Compared to negative control each week: *P<0.05, **P<0.01, ***P<0.001 (each experiment n=5). N.S., not significant. Compared to neutrophil stimulated only group each week: #P<0.05, ##P<0.01, ###P<0.001 (each experiment n=5). N.S.′, not significant."}, "[5]": {"tested_on": "MDA-MB-231 breast cancer Xenograft", "experiment": "MDA-MB-231 breast cancer Xenograft model, AC-regimen alone and PLAG co-treatment", "type": "in vivo, mouse", "description": "MDA-MB-231 breast cancer Xenograft model was used. Tumor growth was evaluated in the AC-regimen alone and PLAG co-treated animals. AC-regimen was delivered via IP injection twice a week with dose of 2/20 and 5/50 mph (Doxorubicin/Cyclophosphamide), and PLAG was daily administered with 100 and 250 mpk. Tumor growth was calculated with 3 day intervals. Neutrophil chemotaxis related chemokines, CXCL1/2/8 and circulating neutrophils were also evaluated with 2 week internal. Expression of apoptosis molecular markers, Bax/Bak and tumor-infiltrating neutrophil (TIN) in the tumor lesion was analyzed by immunohistochemistry (IHC)."}, "[6]": {"tested_on": "LLC-1 lung carcinoma", "experiment": "LLC-1 syngeneic model, PLAG with or without aPD-1", "type": "in vivo, C57BL/6 mice", "text": "To investigate the enhanced anti tumor effect of the anti-PD-1 antibody (aPD-1 with the addition of 1-palmitoyl-2-linoleoyk-3-acetyl-rac-glycerol (PLAG), the syngeneic model was used (n=6/group), LLC-1 lung carcinoma was implanted into C57BL/6 mice subcutaneously. PLAG was daily administrated for 4 weeks with or without aPD-1 (RMP 1-14. aPD-1 was delivered via IP injection once a week. The degree of infiltrated lymphocyte population and neutrophils in the tumor and blood on the sacrificed day were analyzed (FIG. 12, Table 2)."}},
  "data": [
    {"smiles": "CCCCC/C=C\\C/C=C\\CCCCCCCC(=O)OC(COC(C)=O)COC(=O)CCCCCCCCCCCCCCC", "note": "(stereo not drawn) [PLAG, 1-palmitoyl-2-linoleoyl-3-acetylglycerol]", "values": [
      {"measurement": "number of TINs", "setting": "[1]; PLAG alone", "value": "effectively reduced"},
      {"measurement": "tumor burden compared to positive control", "setting": "[1]; PLAG alone 50 and 100 mpk, oral daily, p<0.05", "value": "decreased to a significant value"},
      {"measurement": "growth of the tumor compared to PD-L1 antibody alone", "setting": "[1]; PLAG and PD-L1 antibody simultaneously", "value": "significantly reduced"},
      {"measurement": "neutrophil-to-lymphocyte ratio (NLR) level compared to PD-L1 antibody alone", "setting": "[1]; PLAG and PD-L1 antibody, blood, every two weeks", "value": "significantly decreased"},
      {"measurement": "chemokine secretion", "setting": "[1]; PLAG treated groups", "value": "reduced"},
      {"measurement": "expression of neutrophil chemotactic chemokine in cancer tissues", "setting": "[2]", "value": "effectively regulate"},
      {"measurement": "infiltration of neutrophils in cancer tissues", "setting": "[2]", "value": "control excessive infiltration of neutrophils"},
      {"measurement": "cell cycle of cancer tissues / excessive growth", "setting": "[2]; without additional chemotherapeutic agents", "value": "regulate excessive growth by inhibiting the cell cycle"},
      {"measurement": "PAR2 degradation", "setting": "[3]", "value": "inducing PAR2 degradation"},
      {"measurement": "cell cycle activity", "setting": "[4]; neutrophil activated cancer cells", "value": "inhibitory effect"},
      {"measurement": "cell growth", "setting": "[4]; neutrophil-activated MDA-MB-231 cells, dose-dependent", "value": "inhibition of cell growth"},
      {"measurement": "tumor tissue on the sacrifice day", "setting": "[5]; 250 mpk PLAG co-treated with 5/50 AC-regimen", "value": "no tumor tissues were found"},
      {"measurement": "tumor burden compared with AC-regimen alone group", "setting": "[5]; PLAG 100 and 250 mpk daily co-treated with 5/50 AC-regimen, p<0.05", "value": "significantly decreased in a concentration-dependent manner"},
      {"measurement": "tumor-infiltrating neutrophil (TIN)", "setting": "[5]; PLAG added to AC-regimen, IHC", "value": "Significantly reduced"},
      {"measurement": "chemokine expression", "setting": "[5]; PLAG added to AC-regimen, chemokine analysis", "value": "Significantly reduced"},
      {"measurement": "chemokine expression", "setting": "[5]; PLAG alone", "value": "reduced"},
      {"measurement": "tumor growth", "setting": "[5]; PLAG alone", "value": "interruption of tumor growth"},
      {"measurement": "tumor-infiltrating neutrophil (TIN)", "setting": "[5]; PLAG alone", "value": "reduced"},
      {"measurement": "kind of combined effect on regression of tumor burden", "setting": "[5]; PLAG co-treated with AC-regimen", "value": "synergistic effect"},
      {"measurement": "tumor burden compared with AC-regimen alone", "setting": "[5]; PLAG co-treated with AC-regimen, until sacrifice", "value": "smaller tumor burden than that in AC-regimen alone"},
      {"measurement": "tumor burden compared to positive control", "setting": "[6]; PLAG alone 50 and 100 mpk", "value": "significantly reduced"},
      {"measurement": "activity and infiltration of cytotoxic T-Lymphocyte (CTLs) in the tumor compared to aPD-1 alone", "setting": "[6]; PLAG co-treated with aPD-1", "value": "effectively increased"},
      {"measurement": "neutrophil to lymphocyte ratio levels compared to aPD-1 alone", "setting": "[6]; PLAG co-treated with aPD-1", "value": "decreased remarkably"},
      {"measurement": "population of Th 17 compared to the positive control", "setting": "[6]; PLAG co-treated with aPD-1", "value": "significant reduction"},
      {"measurement": "tumor reduction compared to aPD-1 alone", "setting": "[6]; PLAG co-treated with aPD-1", "value": 18},
      {"measurement": "DAMP (adenosine) originated from tumor, plasma", "setting": "[6]; PLAG treatment", "value": "rapid removal"},
      {"measurement": "degree of neutrophil infiltration in the tumor", "setting": "[6]; upon PLAG treatment", "value": "effectively reduced"}
    ]}
  ]
}
